Experimental data published in US5348953A, “Substituted azetidinones as anti-inflammatory and antidegenerative agents” (Merck & Co., Inc., priority 1992, dated 1994).
Where two headings read alike, the source gives them in different places.

Target: T1, Human Polymorphonuclear Leukocyte Elastase (Homo sapiens, UniProt P08246)
T1 construct: Crude extract of human polymorphonuclear leukocytes (PMN) containing elastase activity; from tissue; host or cells: human polymorphonuclear leukocytes (crude extract)
T1 sequence (P08246 30-267): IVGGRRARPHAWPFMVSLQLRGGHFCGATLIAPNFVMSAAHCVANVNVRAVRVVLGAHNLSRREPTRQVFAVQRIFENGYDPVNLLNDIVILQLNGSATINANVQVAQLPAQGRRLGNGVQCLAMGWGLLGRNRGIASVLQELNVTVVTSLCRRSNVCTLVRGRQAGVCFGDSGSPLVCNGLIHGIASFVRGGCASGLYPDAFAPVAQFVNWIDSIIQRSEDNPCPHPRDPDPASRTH
Experiment: Inhibition of human polymorphonuclear leukocyte elastase via hydrolysis of Boc-AAPAN or Boc-AAPVN
Type: biochemical
Conditions: pH 7.5, Formula A, M n-propyl, read-out: kobs /[I]
Description: Enzyme Assays for the Inhibition of Human Polymorphonuclear Leukocyte
Elastase Via Hydrolysis of
N-t-Boc-alanyl-alanyl-prolylalanine-p-nitroanilide (Boc-AAPAN) or
N-t-Boc-alanyl-prolylvaline-p-nitroanilide (Boc-AAPVN) Reagent:
0.05M TES (N-tris[hydroxymethyl]methyl-2-amino-ethanesulfonic acid) Buffer, pH 7.5.
0.2 mM Boc-AAPAN or Boc-AAPVN.
To prepare substrate, the solid was first dissolved in 10.0 ml DMSO. Buffer at pH 7.5 was then added to a final volume of 100 ml.
Crude extract of human polymorphonuclear leukocytes (PMN) containing elastase activity.
Inhibitors (azetidinones) to be tested dissolved in DMSO just before use.
To 1.0 ml of 0.2 mM Boc-AAPAN in a cuvette, 0.01-0.1 ml of DMSO with or without inhibitor was added. After mixing, a measurement was taken at 410 mμ to detect any spontaneous hydrolysis due to presence of test compound. 0.05 Milliliters of PMN extract was then added and the ΔOD/min at 410 mμ was measured and recorded. Beckman model 35 spectrophotometer was used.
Results in Table I were reported as ID50, effective dosage in micrograms per milliliter (μg/ml) for 50% inhibition of the enzyme activity 2 minutes after zero time.
Results were also expressed as Ki, the micromolar concentration of the inhibitor (μM) giving 50% of the control enzyme activity; or as ^k obs/I which is the second order rate constant in per mole per second for inactivation of the enzyme.
The elastase activity in the crude PMN extract may vary from one preparation to another. A control of each new batch is run, and the volume added in the assay procedure is adjusted according to activity.

[1] = second order rate constant for inactivation, R2 4-methyl (TABLE 1)
[2] = second order rate constant, R4 piperazine amide with substituent Z
[3] = second order rate constant, R2 3,4-methylenedioxy

| SMILES | kinact/KI [1] [M⁻¹ s⁻¹] | other results |
| --- | --- | --- |
| CCC[C@@H](NC(=O)N1C(=O)C(CC)(CC)[C@@H]1OCC(=O)N(CC)CCN(CCOCC)C(C)C)c1ccc(C)cc1 | 195000 | – |
| CCC[C@@H](NC(=O)N1C(=O)C(CC)(CC)[C@@H]1OCC(=O)N1CCOCC1)c1ccc(C)cc1 | 400000 | – |
| CCC[C@@H](NC(=O)N1C(=O)C(CC)(CC)[C@@H]1OCC(=O)N1CCN(C2CC2)CC1)c1ccc2c(c1)OCO2 [2-(S)-[2-[2-(4-Cyclopropyl)piperazin-1-yl]-2-oxoethoxy]-3,3-diethyl-N-[1-(R)-(3,4-methylenedioxyphenyl)-butyl]-4-oxo-1-azetidinecarboxamide] | – | kinact/KI [2]: 560000 M⁻¹ s⁻¹ |
| CCC[C@@H](NC(=O)N1C(=O)C(CC)(CC)[C@@H]1OCC(=O)N(C)CCN1C(C)CCCC1C)c1ccc(C)cc1 (stereo partly drawn) [2-(S)-[2-[[2-(2,6-dimethylpiperidin-1-yl)ethyl]-methylamino]-2-oxoethoxy]-3,3-diethyl-N-[1-(R)-(4-methylphenyl)butyl] -4-oxo-1-azetidinecarboxamide] | 80000 | – |
| CCC[C@@H](NC(=O)N1C(=O)C(CC)(CC)[C@@H]1OCC(=O)N(CC)CCN(C)CCOC)c1ccc2c(c1)OCO2 [2-(S)-[2-[[2-(2-Methoxyethyl)methylamino)ethy]ethylamino]-2-oxoethoxy]-3,3-diethyl-N-[1-(R)-(3,4-methylenedioxyphenyl)butyl]-4-oxo-1-azetidine carboxamide] | – | kinact/KI [3]: 450000 M⁻¹ s⁻¹ |
| CCC[C@@H](NC(=O)N1C(=O)C(CC)(CC)[C@@H]1OCC(=O)N(C)CCN(CCOCC)C(C)C)c1ccc(C)cc1 [2-(S)-[2-[[2-((2-Ethoxyethyl)-isopropylamino)ethyl]methylamino]-2-oxoethoxy]-3,3-diethyl-N-[1-(R)-(4-methylphenyl)butyl]-4-oxo-1-azetidinecarboxamide] | 140000 | – |
| CCC[C@@H](NC(=O)N1C(=O)C(CC)(CC)[C@@H]1OCC(=O)N(CCC)CCN(CCOCC)C(C)C)c1ccc(C)cc1 [2-(S)-[2-[[2-((2-Ethoxyethyl)-isopropylamino)ethyl]propylamino]-2-oxoethoxy]-3,3-diethyl-N-[1-(R)-(4-methylphenyl)butyl]-4-oxo-1-azetidinecarboxamide] | 185000 | – |
| CCC[C@@H](NC(=O)N1C(=O)C(CC)(CC)[C@@H]1OCC(=O)N(CCN(CC)CCOC)C(C)C)c1ccc(C)cc1 [2-(S)-[2-[[2-((2-Methoxyethyl)-ethylamino)ethyl]-isopropylamino]-2-oxoethoxy]-3,3-diethyl-N-[1-(R)-(4-methylphenyl)butyl]-4-oxo-1-azetidinecarboxamide] | 250000 | – |
| CCC[C@@H](NC(=O)N1C(=O)C(CC)(CC)[C@@H]1OCC(=O)N(CC)CCN(CC)CCOC)c1ccc(C)cc1 [2-(S)-[2-[[2-((2-Methoxyethyl)-ethylamino)ethyl]ethylamino]-2-oxoethoxy]-3,3-diethyl-N-[1-(R)-(4-methylphenyl)butyl]-4-oxo-1-azetidinecarboxamide] | 185000 | – |
| CCC[C@@H](NC(=O)N1C(=O)C(CC)(CC)[C@@H]1OCC(=O)N(C)CCN(CC)CCOC)c1ccc(C)cc1 [2-(S)-[2-[[2-((2-Methoxyethyl)-ethylamino)ethyl]methylamino]-2-oxoethoxy]-3,3-diethyl-N-[1-(R)-(4-methylphenyl)butyl]-4-oxo-1-azetidinecarboxamide] | 110000 | – |
| CCC[C@@H](NC(=O)N1C(=O)C(CC)(CC)[C@@H]1OCC(=O)N(C)CCN(CCOC)CCOC)c1ccc(C)cc1 [2-(S)-[2-[[2-(Di-(2-methoxyethyl)amino)ethyl]methylamino]-2-oxoethoxy]-3,3-diethyl-N-[1-(R)-(4-methylphenyl)butyl]-4-oxo-1-azetidinecarboxamide] | 165000 | – |
| CCC[C@@H](NC(=O)N1C(=O)C(CC)(CC)[C@@H]1OCC(=O)N(CC)CCN(C)C)c1ccc2c(c1)OCO2 [2-(S)-[2-[[2-(Dimethylamino)ethy]-ethylamino]-2-oxoethoxy]-3,3-diethyl-N-[1-(R)-(3,4-methylenedioxyphenyl)butyl]-4-oxo-1-azetidinecarboxamide] | – | kinact/KI [3]: 425000 M⁻¹ s⁻¹ |
| CCC[C@@H](NC(=O)N1C(=O)C(CC)(CC)[C@@H]1OCC(=O)N(CCN(C)C)C(C)C)c1ccc2c(c1)OCO2 [2-(S)-[2-[[2-(Dimethylamino)ethyl]-isopropylamino]-2-oxoethoxyl]-3,-3-diethyl-N-[1-(R)-(3,4-methylenedioxyphenyl)-butyl]-4-oxo-1-azetidinecarboxamide] | – | kinact/KI [3]: 500000 M⁻¹ s⁻¹ |
| CCC[C@@H](NC(=O)N1C(=O)C(CC)(CC)[C@@H]1OCC(=O)N(CC)CCN1CCOCC1)c1ccc(C)cc1 [2-(S)-[2-[[2-(Morpholin-1-yl)ethyl]ethylamino]-2oxoethoxy]-3,3-diethyl-N-[1-(R)-(4-methylphenyl)butyl]-4-oxo-1-azetidinecarboxamide] | 245000 | – |
| CCC[C@@H](NC(=O)N1C(=O)C(CC)(CC)[C@@H]1OCC(=O)N1CCN(C)CC1)c1ccc2c(c1)OCO2 [R2=3,4-methylenedioxy-; R5=H; Z=--Me, 2-(S)-[2-[2-(4-Methyl)piperazin-1-yl]-2-oxoethoxy]-3,-3-diethyl-N-[1-(R)-(3,4-methylenedioxyphenyl)-butyl]-4-oxo-1-azetidinecarboxamide] | – | kinact/KI [2]: 530000 M⁻¹ s⁻¹ |
| CCC[C@@H](NC(=O)N1C(=O)C(CC)(CC)[C@@H]1OCC(=O)N1CCNCC1)c1ccc2c(c1)OCO2 [R2=3,4-methylenedioxy-; R5=H; Z=H] | – | kinact/KI [2]: 515000 M⁻¹ s⁻¹ |
| CCC[C@@H](NC(=O)N1C(=O)C(CC)(CC)[C@@H]1OCC(=O)N1CCN(CCO)CC1)c1ccc(C)cc1 [R2=4-Me; R5=H; Z=CH2 CH2 OH, 2-(S)-[2-[2-(4-(2-Hydroxy)ethyl)piperazin-1-yl]-2-oxoethoxy]-3,-3-diethyl-N[1-(R)-(4-methylphenyl)-butyl]-4-oxo-1-azetidinecarboxamide] | – | kinact/KI [2]: 300000 M⁻¹ s⁻¹ |
| CCC[C@@H](NC(=O)N1C(=O)C(CC)(CC)[C@@H]1OCC(=O)N1CCNCC1)c1ccc(C)cc1 [R2=4-Me; R5=H; Z=H] | – | kinact/KI [2]: 250000 M⁻¹ s⁻¹ |
| CCC[C@@H](NC(=O)N1C(=O)C(CC)(CC)[C@@H]1OCC(=O)N1CCN(C2CC2)CC1)c1ccc(C)cc1 [R2=4-Me; R5=H; Z=cyclopropyl, 2-(S)-[2-[2-(4-Cyclopropyl)piperazin-1-yl]-2-oxoethoxy]-3,-3-diethyl-N-[1-(R)-(4-methylphenyl)-butyl]-4-oxo-1-azetidinecarboxamide] | – | kinact/KI [2]: 225000 M⁻¹ s⁻¹ |
| CCC[C@@H](NC(=O)N1C(=O)C(CC)(CC)[C@@H]1OCC(=O)N(CC)CCN(CC)CC)c1ccc(C)cc1 [Y=N(Et)CH2 CH2; R5=H; R7=Et; R8=Et, 2-(S)-[2-[[2-(Diethylamino)ethyl]ethylamino]-2-oxoethoxy]-3,3-di ethyl-N-[1-(R)-(4-methylphenyl)butyl]-4-oxo-1-azetidinecarboxamide] | 177000 | – |
| CCC[C@@H](NC(=O)N1C(=O)C(CC)(CC)[C@@H]1OCC(=O)N(CC)CCN(C(C)C)C(C)C)c1ccc(C)cc1 [Y=N(Et)CH2 CH2; R5=H; R7=iPr; R8=iPr, 2-(S)-[2-[[2-(Diisopropylamino)ethyl]ethylamino]-2-oxoethoxy]-3,3-diethyl-N-[1-(R)-(4-methylphenyl)butyl]-4-oxo-1-azetidinecarboxamide] | 189000 | – |
| CCC[C@@H](NC(=O)N1C(=O)C(CC)(CC)[C@@H]1O[C@@H](C)C(=O)N(CC)CCN(C)C)c1ccc(C)cc1 [Y=N(Et)CH2 CH2; R5=Me; R7=Me; R8=Me, 2-(S)-[2-[[2-(Dimethylamino)ethyl]ethylamino]-2-oxo-(1-(S)-methyl)ethoxy]-3,3-diethyl-N-[1-(R)-(4-methylphenyl)butyl]-4-oxo-1-azetidinecarboxamide] | 1.77e+06 | – |
| CCC[C@@H](NC(=O)N1C(=O)C(CC)(CC)[C@@H]1OCC(=O)N(C)CCCN(C)C)c1ccc(C)cc1 [Y=N(Me)CH2 CH2 CH2; R5=H; R7=Me; R8=Me, 2-(S)-[2-[[3-(Dimethylamino)propyl]methylamino]-2-oxoethoxy]-3,3-diethyl-N-[1-(R)-(4-methylphenyl)butyl]-4-oxo-1-azetidinecarboxamide] | 115000 | – |
| CCC[C@@H](NC(=O)N1C(=O)C(CC)(CC)[C@@H]1OCC(=O)N(C)CCN(CC)CC)c1ccc(C)cc1 [Y=N(Me)CH2 CH2; R5=H; R7=Et; R8=Et, 2-(S)-[2-[[2-(Diethylamino)ethyl]methylamino]-2oxoethoxy]-3,3-diethyl-N-[1-(R)-(4-methylphenyl)butyl]-4-oxo-1-azetidinecarboxamide] | 150000 | – |
| CCC[C@@H](NC(=O)N1C(=O)C(CC)(CC)[C@@H]1OCC(=O)N(C)CCN(C)C)c1ccc(C)cc1 [Y=N(Me)CH2 CH2; R5=H; R7=Me; R8=Me, 2-(S)-[2-[[2-(Dimethylamino)ethyl]methylamino]-2-oxoethoxy]-3,3-diethyl-N-[1-(R)-(4-methylphenyl)butyl]-4-oxo-1-azetidinecarboxamide] | 114000 | – |
